# Data reported in US20260069653A1, “COMPLEMENT INHIBITOR DOSING REGIMENS” (Apellis Pharmaceuticals, Inc., priority 2021, published 2026).
# Square brackets hold non-standard residues; d marks the D form. Trp(5-F) = N[C@@H](Cc1c[nH]c2ccc(F)cc12)C(=O)O; Trp(5-Me) = Cc1ccc2[nH]cc(C[C@H](N)C(=O)O)c2c1; Trp(6-F) = N[C@@H](Cc1c[nH]c2cc(F)ccc12)C(=O)O; Bpa = N[C@@H](Cc1ccc(C(=O)c2ccccc2)cc1)C(=O)O; 1Nal = N[C@@H](Cc1cccc2ccccc12)C(=O)O; 2Nal = N[C@@H](Cc1ccc2ccccc2c1)C(=O)O; Igl = N[C@H](C(=O)O)C1Cc2ccccc2C1
# Legend:
# [1] = system: complement activation; details: fold more active than compstatin amidated at the C-terminus; published data and assays; cited from earlier work
# [2] = system: total complement hemolytic activity (CH50); test: CH50 after single IV infusion; format: in vivo, human
# [3] = Safety in healthy volunteers, ascending dose study
# Method: (§4) Subjects were monitored during a safety period from Day 2 to 8 by physical examination, ECG, hematology, serum chemistry, monitoring for injection site reaction and treatment emergent adverse events (TEAEs). Follow-up safety assessments were performed on Days 15, 22, 29, and 43.
# [4] = system: acute hemolysis; test: LDH during intensive dosing for acute hemolysis in PNH patients; format: in vivo, human
# Description: (§1) Eligibility criteria for the intensive dosing regimen included lactate dehydrogenase (LDH) >2× the upper limit of normal (ULN) and one new or worsening sign or symptom of hemolysis (e.g., decreased hemoglobin (Hb), hemoglobinuria, or fatigue).
# (§2) Patients who experienced additional acute hemolysis events after receiving intensive PEG treatment received additional doses of intensive SC PEG or intensive IV PEG. […] Analyzed data relates to the first event if a patient experienced multiple acute hemolysis events.
# (§3) Levels of Hb (on day 1) and LDH (on day 1, day 2, days 7-12, days 14-19) during the event of acute hemolysis were determined. […] For each patient, at least 6 days were between the measurements on day 7-12 and day 14-19. Safety was evaluated by the incidence and severity of adverse events.
# [5] = system: C3a; test: C3a levels (ELISA) after single IV infusion; format: in vivo, human
# Method: C3a Split Product Testing: C3a was measured by ELISA (BD Pharmingen optEIA) using microtiter plates precoated with specific monoclonal antibodies against C3a. The standards, controls and test specimens were diluted and placed in duplicate into the wells and incubated to allow binding of the split products to the antibodies in the well. After washing away unbound proteins, a second anti-split products antibody, conjugated to an enzyme (horseradish peroxidase) was allowed to react with the split products bound to the first antibody on the plate. After an appropriate incubation time and washing, a chromogenic substrate for the enzyme was added to the wells, and the intensity of color that developed was determined spectrophotometrically. Three QC specimens were run on every assay.
# C3a ELISA Calculations: The optical densities (OD) for each of the wells containing the standards for the assay were entered as the dependent variables (Y) in a linear regression calculation (Microsoft Excel) in which the concentrations of the standards (provided by the kit manufacturer, BD Pharmingen) were the independent variables (X). The slope (m) and intercept (b) obtained from the regression analysis on a log-log were then used to calculate the concentrations of the unknowns (controls and test specimens). The formula for a straight line was used to calculate the unknown values using a log/log solution: LnY=mLnX+b, solved for X: X=exp (LnY−b)/m*dilution.
# [6] = Serum concentration of PEG after single IV infusion, ascending dose study; format: in vivo, human; details: for peak concentration (Cmax), mean serum concentration: healthy subjects
# [7] = human, in vivo
# Method: as §4
# [8] = system: acute hemolysis; test: Hemoglobin during intensive dosing for acute hemolysis in PNH patients; format: in vivo, human; details: patients with and without RBC transfusion (FIG. 6)
# Description: as §1, §2, §3
# [9] = system: alternative complement pathway hemolytic activity (AH50); test: AH50 hemolytic assay on serum after single IV infusion; format: in vivo, human
# Method: AH50 Method: AH50 was measured by a hemolytic assay based on lysis of rabbit red blood cells (RA) due to activation of complement on the cell's surface. The AH50 (50% Alternative Complement Hemolytic dose) was determined for each component by adding a limiting amount of the test serum or plasma. For this assay, the buffers are created such as to block activity of the classical pathway, which requires calcium. Serial dilutions of the test specimen were mixed with equal volumes of the RA. This functional assay measured the amount of hemoglobin that was released when the target cells were lysed by the action of complement, and from this, the percentage of the cells that had been lysed was calculated. The major peak of the hemoglobin spectrum was read at 415 nm wavelength. For each assay the run was verified with a five-point standard and five points of characterized QC control.
# AH50 Calculations: For verifiable continuity between assay runs, the AH50 assay was performed using a human serum standard with known AH50 activity. […] If the dilution series produced lysis that spanned the 50% point, the three points closest to the 50% point were used to determine the slope and intercept of the line by linear regression. If the percent lysis was very low and none of the dilutions produced 50% lysis, then the two highest points in the series were used, because the slope changes drastically as the sigmoid curve reaches its lower limit. Each specimen from the study was diluted in the same manner and individual 50% lysis points determined by linear regression.
# [10] = Safety of intensive dosing in PNH patients; format: in vivo, human; details: intensive PEG treatment
# Description: as §1, §2, §3
substance,measurement,setting,value
Ac-ICVWQDWGAHRCdT-COOH [Ac-V4W/H9A/T13dT-OH],Activity over compstatin,[1],55x
Ac-ICV(2-Nal)QDWGAHRCT-CONH2 (Ac-ICV[2Nal]QDWGAHRCT-NH2; not fully specified (bridges); printed as Ac-ICV(2-Nal)QDWGAHRCT-CONH2; cysteine pairing not given here) [Ac-V4(2-Nal)/H9A],Activity over compstatin,[1],99x
Ac-ICV(Bpa)QDWGAHRCT-CONH2 (Ac-ICV[Bpa]QDWGAHRCT-NH2; not fully specified (bridges); printed as Ac-ICV(Bpa)QDWGAHRCT-CONH2; cysteine pairing not given here) [Ac-V4(Bpa)/H9A],Activity over compstatin,[1],86x
Ac-ICV(Bpa)QDWGAHRCT-COOH (Ac-ICV[Bpa]QDWGAHRCT-OH; not fully specified (bridges); printed as Ac-ICV(Bpa)QDWGAHRCT-COOH; cysteine pairing not given here) [Ac-V4(Bpa)/H9A-OH],Activity over compstatin,[1],49x
Ac-ICV[(2-Nal)QDWGAHRCT-COOH (Ac-ICV[2Nal]QDWGAHRCT-OH; not fully specified (bridges); printed as Ac-ICV[(2-Nal)QDWGAHRCT-COOH; cysteine pairing not given here) [Ac V4(2-Nal)/H9A-OH],Activity over compstatin,[1],38x
Ac-ICVWQDWGAHRCT-CONH2 (Ac-ICVWQDWGAHRCT-NH2; not fully specified (bridges); printed as Ac-ICVWQDWGAHRCT-CONH2; cysteine pairing not given here) [Ac-V4W/H9A],Activity over compstatin,[1],45x
"Poly(oxy-1,2-ethanediyl), α-hydro-ω-hydroxy-, 15,15′-diester with N-acetyl-L-isoleucyl-L-cysteinyl-L-valyl-1-methyl-L-tryptophyl-L-glutaminyl-L-α-aspartyl-L-tryptophylglycyl-L-alanyl-L-histidyl-L-arginyl-L-cysteinyl-L-threonyl-2-[2-(2-aminoethoxy)ethoxy]acetyl-N^6-carboxy-L-lysinamide cyclic (2-->12)-(disulfide) [PEG]",Mean CH50 upon dosing,[2]; all cohorts,decreased immediately
same,time for which decrease in mean CH50 was retained,[2]; single IV 1500 mg,at least 48 hours
same,time by which mean CH50 returned to baseline,"[2]; single IV 2300 mg, post-dosing start",≤ 24 h
same,"subjects with moderate TEAE (infusion-related reaction, dizziness, clamminess, nausea) that led to study discontinuation","[3]; 2300 mg cohort, one subject, percent of the twenty subjects",5.0%
same,incidence of diarrhea (TEAE),"[3]; PEG groups, n=2",12.5%
same,incidence of headache (TEAE),"[3]; PEG groups, n=6",37.5%
same,"serious adverse events, deaths, severe TEAEs","[3]; healthy subjects, single IV 200-2300 mg","No serious adverse events, deaths, or severe TEAEs occurred"
same,patients with LDH levels decreased at day 7-12,"[4]; all 13 patients, intensive SC or IV PEG",13 patients
same,patients with LDH levels decreased between day 1 and day 2,"[4]; all evaluable patients, intensive SC or IV PEG 1080 mg",8 of 12
same,patients with LDH levels further decreased from day 7-12 to day 14-19,"[4]; all patients, intensive SC or IV PEG",11 of 13
same,patients with LDH levels further decreased from day 7-12 to day 14-19,[4]; intensive IV PEG,3 of 4
same,patients with LDH levels decreased between day 1 and day 2,[4]; intensive IV PEG (single 1080 mg dose),4 of 4
same,patients with LDH levels further decreased from day 7-12 to day 14-19,[4]; intensive SC PEG,7 of 9
same,patients with LDH levels decreased between day 1 and day 2,[4]; intensive SC PEG (1080 mg every 24 hours for 3 doses),4 of 8
same,time within which initial rapid decrease in mean C3a levels occurred,[5]; all PEG groups,≤ 1 h
same,time of trough mean C3a levels after dosing,[5]; all dose groups,≤ 24 h
same,maximum mean C3a decrease from baseline,"[5]; single IV 1500 mg, at 4 hours post-dosing start",57%
same,terminal elimination half-life,[6]; Cohort 4 (2300 mg single IV),11.9 days
same,"peak concentration (Cmax), mean serum concentration","[6]; single IV 200 mg, at 1 hr post-dose (infusion start)",61 µg/mL
same,"peak concentration (Cmax), mean serum concentration","[6]; single IV 600 mg, at 1 hr post-dose (infusion start)",193 µg/mL
same,"peak concentration (Cmax), mean serum concentration","[6]; single IV 1500 mg, at 4 hrs",542 µg/mL
same,"peak concentration (Cmax), mean serum concentration","[6]; single IV 2300 mg, at 1 hr post-dose (infusion start)",708 µg/mL
same,incidence of upper respiratory infections (TEAE),[7],12.5%
same,mean Hb from day 1 of intensive therapy,[8],increased
same,AH50 level from 1 hr post-dosing start,[9]; 1500 and 2300 mg single IV doses,undetectable levels
same,time within which decreases in mean AH50 values were detected,[9]; all PEG cohorts (200-2300 mg single IV),≤ 1 h
same,mean maximum decrease of AH50 compared to placebo,"[9]; all PEG groups, p<0.0001",statistically significant larger
same,time for which decrease in mean AH50 was maintained,[9]; single IV 200 mg,at least 12 hrs
same,time for which decrease in mean AH50 was maintained,[9]; single IV 600 mg,≥ 72 h
same,time for which decrease in mean AH50 was maintained,[9]; single IV 1500 mg,≥ 144 h
same,patients with serious adverse events,[10]; 4 of 13 patients,31%
same,patients with treatment-emergent adverse events,[10]; Nine of 13 patients,69%
same,adverse events leading to treatment discontinuation,[10],None of the adverse events led to treatment discontinuation
same,adverse events of meningitis or thrombosis,[10],No adverse events of meningitis or thrombosis occurred
same,share of treatment-emergent adverse events that were mild,[10],76%
Ac-ICV(2-Igl)QDWGAHRCT-COOH (Ac-ICV[Igl]QDWGAHRCT-OH; not fully specified (bridges); printed as Ac-ICV(2-Igl)QDWGAHRCT-COOH; cysteine pairing not given here) [Ac-V42Igl/H9A-OH],Activity over compstatin,[1],37x
Ac-ICV(2-Igl)QDWGAHRCT-CONH2 (Ac-ICV[Igl]QDWGAHRCT-NH2; not fully specified (bridges); printed as Ac-ICV(2-Igl)QDWGAHRCT-CONH2; cysteine pairing not given here) [Ac-V42Igl/H9A],Activity over compstatin,[1],39x
H-GICV(6fW)QD(6fW)GAHRCTN-COOH (H-GICV[Trp(6-F)]QD[Trp(6-F)]GAHRCTN-OH; not fully specified (bridges); cysteine pairing not given here) [+G/V4(6fW)/W7(6fW)H9A+N-OH],Activity over compstatin,[1],126x
Ac-ICV(5fW)QDWGAHRCT-CONH2 (Ac-ICV[Trp(5-F)]QDWGAHRCT-NH2; not fully specified (bridges); printed as Ac-ICV(5fW)QDWGAHRCT-CONH2; cysteine pairing not given here) [Ac-V4(5fW)/H9A],Activity over compstatin,[1],31x
H-GICV(5fW)QD(5fW)GAHRCTN-COOH (H-GICV[Trp(5-F)]QD[Trp(5-F)]GAHRCTN-OH; not fully specified (bridges); cysteine pairing not given here) [G/V4(5f-WV)/WV7(5fW)/H9A+N-OH],Activity over compstatin,[1],112x
Ac-ICV(5-methyl-W)QDWGAHRCT-CONH2 (Ac-ICV[Trp(5-Me)]QDWGAHRCT-NH2; not fully specified (bridges); printed as Ac-ICV(5-methyl-W)QDWGAHRCT-CONH2; cysteine pairing not given here) [Ac-V4(5-MeW)/H9A],Activity over compstatin,[1],67x
Ac-ICVYQDWGAHRCT-CONH2 [Ac-V4Y/H9A],Activity over compstatin,[1],14x
Ac-ICVWQD(5fW)GAHRCT-CONH2 (Ac-ICVWQD[Trp(5-F)]GAHRCT-NH2; not fully specified (bridges); printed as Ac-ICVWQD(5fW)GAHRCT-CONH2; cysteine pairing not given here) [Ac-V4W/W7(5fW)/H9A],Activity over compstatin,[1],121x
Ac-ICV(1-Nal)QDWGAHRCT-COOH (Ac-ICV[1Nal]QDWGAHRCT-OH; not fully specified (bridges); printed as Ac-ICV(1-Nal)QDWGAHRCT-COOH; cysteine pairing not given here) [Ac V4(1-Nal)/H9A-OH],Activity over compstatin,[1],30x
Ac-ICVVQDWGHHRCT-CONH2 [Ac-compstatin],Activity over compstatin,[1],3x
